# Results as given in PMC4403045 (EMBO Molecular Medicine, 2015).
# Read-outs that look alike come from different tables or passages of the source.
# How the values were obtained:
# NCI60 cell lines = experiment: GI50 in the NCI60 cell line panel; type: cell-based; settings: Homo sapiens
# Method: (§1) Cells were seeded in 96-well plates, treated with different concentrations of drugs for 48 h, and cell viability was analyzed by MTT assays according to manufacturer's protocols. Experiments to determine GI50 with the NCI60 panel cell lines (http://dtp.nci.nih.gov/branches/btb/ivclsp.html) were performed at NCI (Alley et al, [1988]; Shoemaker, [2006]).
# MEFs = experiment: GI50 in MEFs; type: cell-based
# Method: as §1
# HDAC1 = HDAC1 (Homo sapiens, UniProt Q13547); experiment: in vitro HDAC1 inhibition assay; type: biochemical
# HDAC2 = HDAC2 (Homo sapiens, UniProt Q92769); experiment: in vitro HDAC inhibition assay, HDAC2; type: biochemical
# HDAC3 = HDAC3 (Homo sapiens, UniProt O15379); experiment: in vitro HDAC inhibition assay, HDAC3; type: biochemical
# HDAC4 = HDAC4 (Homo sapiens, UniProt P56524); experiment: in vitro HDAC inhibition assay, HDAC4; type: biochemical
# HDAC6 = target: T1, HDAC6 (Homo sapiens, UniProt Q9UBN7); experiment: in vitro HDAC inhibition assay, HDAC6; type: biochemical
# T1 sequence (Q9UBN7 1-1215): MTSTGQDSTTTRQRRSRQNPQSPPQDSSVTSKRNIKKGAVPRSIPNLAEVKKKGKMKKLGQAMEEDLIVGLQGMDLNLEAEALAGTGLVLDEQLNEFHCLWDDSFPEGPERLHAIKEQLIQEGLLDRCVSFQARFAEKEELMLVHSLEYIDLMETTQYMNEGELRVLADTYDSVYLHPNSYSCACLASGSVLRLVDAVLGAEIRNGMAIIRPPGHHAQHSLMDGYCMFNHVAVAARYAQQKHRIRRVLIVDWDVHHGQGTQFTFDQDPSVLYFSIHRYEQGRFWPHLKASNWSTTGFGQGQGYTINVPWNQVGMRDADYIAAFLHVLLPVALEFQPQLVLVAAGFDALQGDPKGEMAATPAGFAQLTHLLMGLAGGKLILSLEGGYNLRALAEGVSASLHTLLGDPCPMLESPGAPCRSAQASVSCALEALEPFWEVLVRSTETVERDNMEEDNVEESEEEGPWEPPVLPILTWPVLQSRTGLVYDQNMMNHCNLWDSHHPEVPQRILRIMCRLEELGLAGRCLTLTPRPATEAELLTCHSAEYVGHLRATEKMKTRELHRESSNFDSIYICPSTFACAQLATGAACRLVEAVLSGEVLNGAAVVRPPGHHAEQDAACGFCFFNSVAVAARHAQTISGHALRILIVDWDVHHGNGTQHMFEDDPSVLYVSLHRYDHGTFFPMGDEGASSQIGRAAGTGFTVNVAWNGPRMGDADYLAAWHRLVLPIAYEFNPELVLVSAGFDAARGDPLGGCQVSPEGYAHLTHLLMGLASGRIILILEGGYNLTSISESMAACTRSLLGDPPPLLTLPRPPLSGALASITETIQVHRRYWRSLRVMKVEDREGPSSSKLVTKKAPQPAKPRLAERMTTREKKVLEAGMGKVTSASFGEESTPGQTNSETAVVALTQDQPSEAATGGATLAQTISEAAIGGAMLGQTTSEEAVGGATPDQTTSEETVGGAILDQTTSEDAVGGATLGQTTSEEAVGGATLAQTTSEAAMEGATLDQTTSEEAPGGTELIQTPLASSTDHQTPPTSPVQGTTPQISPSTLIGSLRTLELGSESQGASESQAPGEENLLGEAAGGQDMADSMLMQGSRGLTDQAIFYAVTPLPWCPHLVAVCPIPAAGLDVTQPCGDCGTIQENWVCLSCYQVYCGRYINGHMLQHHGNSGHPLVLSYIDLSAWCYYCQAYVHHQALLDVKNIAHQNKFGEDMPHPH
# [1] = test system: HDAC activities in H1650 cells; experiment: histone acetylation markers by Western blot in H1650 cells; type: cell-based; settings: 12 h, 20 μM CY, 20 μM CpdA, 200 μM CpdB, 200 μM Bend
# [2] = test system: CBP, TIP60, MORF, and MSL1 expression in H1650 cells; type: cell-based
# [3] = maximally tolerated dose in mice; settings: female, C57BL/6, mouse, in vivo
# Method: (§2) Experimental procedures were approved by the Animal Care and Use Committee of Shanghai Institute of Biochemistry and Cell Biology, Chinese Academy of Sciences. In all, 200 wild-type C57BL/6 mice (6 weeks old, female) were used for determining maximally tolerated dose of CY, and testing CY and other drugs' efficacy in the BCR-ABL ALL model. BCR-ABL cells have been previously described (Williams et al, [2006]). For in vivo experiments, 1 million cells were injected into mice via tail vein (Williams et al, [2006]). At 7 days postinjection, mice were treated with indicated drugs at their MTDs. Mice were monitored daily for survival after drug treatment. Survival curve and statistical analysis were done using the Prism software. For xenograft H460 model, in all, nude mice (8 weeks old, female) were used to test CY and bendamustine's in vivo efficacy. The numbers of mice used in each experimental group are labeled on Fig4.
# [4] = test system: BCR-ABL Arf−/− murine ALL cells; experiment: activity against BCR-ABL ALL cells in vitro; type: cell-based
# Method: Cell lines were cultured using standard protocols provided by ATCC. Myc Arf^−/− cells were cultured as described (Jiang et al, [2009]). BCR-ABL mouse ALL cells were a kind gift from Dr. Richard Williams. CY190602 and its derivatives compound A and B were synthesized by Dr. Wang's Laboratory (U. New Mexico). Other chemicals were purchased from Selleck, EMD, or VWR. Antibodies against γ-H2AX (Millipore), actin (Sigma), H3K18Ac, H3K9Ac, and H3K56Ac (Cell Signaling) were used for Western blotting.
# as §1
# BCR-ABL ALL cells = experiment: survival of mice transplanted with BCR-ABL ALL cells; type: in vivo; settings: for survival extension: treatment at MTD, mice transplanted with BCR-ABL ALL cells
# Method: as §2, with “BCR-ABL cells have been previously described (Williams et al, [2006]). For in vivo experiments, 1 million cells were injected into mice via tail vein (Williams et al, [2006]).” left out
# [5] = test system: human NSCLC cell line H460; experiment: H460 xenograft in nude mice; type: in vivo; settings: single dose CY 20, 40, 60 mg/kg; bendamustine 40 mg/kg
# Method: as §2
# human CLL cells = type: cell-based
# [6] = viability of healthy primary B cells; type: cell-based; settings: human, healthy primary CD19+ B cells from blood donors, 20 μM CY
# Excerpt: This study was approved by the ethics committee of the University of Cologne (approval 01-163). Blood samples were obtained from patients fulfilling diagnostic criteria for CLL with informed consent according to the Helsinki protocol. Only patients without prior therapy or at least 12 months without prior chemotherapy were included in this study. Fresh blood samples were enriched by applying B-RosetteSep (StemCell Technologies, Vancouver, Canada) to aggregate unwanted cells with erythrocytes and Ficoll-Hypaque (Seromed, Berlin, Germany) density gradient purification resulting in purity > 98% of CD19^+/CD5^+ CLL cells. CLL cells were characterized for CD19, CD5, CD23, FMC7, CD38, ZAP-70, slgM, slgG, CD79a, and CD79b expression on a FACSCanto flow cytometer (BD PharMingen, Heidelberg, Germany). Controls were isolated from healthy blood donors using anti-CD19 MACS beads (Miltenyi, Bergisch Gladbach, Germany) resulting in at least 95% CD19^+ B cells.
# Apoptosis was determined by flow cytometry using Annexin V-FITC/7AAD staining (BD PharMingen) after 72 h. […] The fraction of viable cells was determined by counting annexin V/7-AAD double-negative cells for each individual dosage. Median values were subsequently applied for regression analysis and calculation of the half-maximal dosage effect (IC50). […] IC50 values were determined by fitting data to the Hill equation y = y0 + (axb)/(cb+xb).
# human AML cells = experiment: patient derived xenograft mouse model of human AML; settings: done by other collaborators; review file
# HDAC1-6 = experiment: cell-free HDAC activity assays, HDAC1-6 overall; type: biochemical; settings: Fig2A and 2B
# [7] = mice; ref according to the literature; cited from earlier work
# human cancer cell lines = experiment: cancer cell killing / MTT viability (LD50); type: cell-based
# γ-H2AX in H1650 cells = experiment: γ-H2AX Western blot (DNA damage) in H1650 cells; type: cell-based; settings: 12 h
# [8] = median over NCI60 cell lines, read-out: median growth inhibitor concentration (GI50)
# [9] = H1650 cells, 6 h, bendamustine 350 μM, CY 15 μM, SAHA 10 μM
# Sequence of HDAC1 (Q13547 whole entry): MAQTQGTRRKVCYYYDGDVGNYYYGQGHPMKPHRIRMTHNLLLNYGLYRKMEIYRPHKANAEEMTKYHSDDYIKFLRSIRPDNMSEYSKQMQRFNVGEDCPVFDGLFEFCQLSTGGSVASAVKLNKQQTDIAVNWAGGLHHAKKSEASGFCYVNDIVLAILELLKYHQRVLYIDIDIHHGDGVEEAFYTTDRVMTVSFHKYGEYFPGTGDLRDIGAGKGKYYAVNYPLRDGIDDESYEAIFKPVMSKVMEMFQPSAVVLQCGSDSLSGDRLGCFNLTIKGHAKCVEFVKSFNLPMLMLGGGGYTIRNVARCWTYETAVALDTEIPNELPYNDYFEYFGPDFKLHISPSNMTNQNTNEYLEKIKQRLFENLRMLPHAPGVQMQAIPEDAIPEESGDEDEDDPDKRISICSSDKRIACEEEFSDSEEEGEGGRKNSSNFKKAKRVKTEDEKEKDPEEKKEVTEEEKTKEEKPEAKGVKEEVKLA
# Sequence of HDAC4 (P56524 whole entry): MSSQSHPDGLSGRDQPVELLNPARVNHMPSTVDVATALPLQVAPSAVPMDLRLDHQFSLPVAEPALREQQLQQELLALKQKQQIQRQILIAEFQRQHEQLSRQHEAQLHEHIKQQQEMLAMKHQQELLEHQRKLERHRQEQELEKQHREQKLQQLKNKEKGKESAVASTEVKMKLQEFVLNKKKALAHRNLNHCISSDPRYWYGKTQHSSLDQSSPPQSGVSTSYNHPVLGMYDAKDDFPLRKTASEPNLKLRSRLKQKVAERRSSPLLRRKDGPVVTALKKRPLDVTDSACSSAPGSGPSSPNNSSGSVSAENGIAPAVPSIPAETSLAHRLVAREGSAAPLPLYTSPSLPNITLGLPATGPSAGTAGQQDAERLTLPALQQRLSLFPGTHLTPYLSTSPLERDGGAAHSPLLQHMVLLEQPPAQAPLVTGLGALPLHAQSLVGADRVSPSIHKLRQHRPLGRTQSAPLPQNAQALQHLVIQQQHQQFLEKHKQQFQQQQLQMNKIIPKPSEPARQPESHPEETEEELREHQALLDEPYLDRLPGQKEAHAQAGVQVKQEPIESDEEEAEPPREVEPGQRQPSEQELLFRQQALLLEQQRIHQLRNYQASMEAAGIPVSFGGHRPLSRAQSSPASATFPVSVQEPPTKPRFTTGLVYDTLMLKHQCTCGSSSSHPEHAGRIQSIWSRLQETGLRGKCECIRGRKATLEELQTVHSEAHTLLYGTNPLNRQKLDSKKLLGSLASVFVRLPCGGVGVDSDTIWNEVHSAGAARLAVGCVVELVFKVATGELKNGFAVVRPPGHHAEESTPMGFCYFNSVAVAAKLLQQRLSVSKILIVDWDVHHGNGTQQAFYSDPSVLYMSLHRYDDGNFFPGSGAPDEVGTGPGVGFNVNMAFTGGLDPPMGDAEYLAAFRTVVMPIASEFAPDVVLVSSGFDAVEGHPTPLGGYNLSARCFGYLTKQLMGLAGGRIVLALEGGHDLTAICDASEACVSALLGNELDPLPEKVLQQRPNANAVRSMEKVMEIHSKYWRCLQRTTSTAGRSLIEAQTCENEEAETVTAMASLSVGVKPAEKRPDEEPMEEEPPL
# Sequence of HDAC2 (Q92769 whole entry): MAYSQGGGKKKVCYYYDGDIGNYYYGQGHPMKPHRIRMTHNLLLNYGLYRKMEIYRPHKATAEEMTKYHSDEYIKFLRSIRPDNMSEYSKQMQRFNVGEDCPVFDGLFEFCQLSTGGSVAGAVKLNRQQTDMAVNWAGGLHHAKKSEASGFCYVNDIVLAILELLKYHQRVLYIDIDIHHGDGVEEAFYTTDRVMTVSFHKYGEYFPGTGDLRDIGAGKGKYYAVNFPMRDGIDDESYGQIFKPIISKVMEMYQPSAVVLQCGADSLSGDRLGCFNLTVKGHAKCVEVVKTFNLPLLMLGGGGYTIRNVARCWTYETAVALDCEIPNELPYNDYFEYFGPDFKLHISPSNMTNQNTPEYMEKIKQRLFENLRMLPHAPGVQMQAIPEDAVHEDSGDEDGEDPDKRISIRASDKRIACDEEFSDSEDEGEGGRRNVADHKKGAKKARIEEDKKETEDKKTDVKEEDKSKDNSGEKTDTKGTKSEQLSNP
# Sequence of HDAC3 (O15379 whole entry): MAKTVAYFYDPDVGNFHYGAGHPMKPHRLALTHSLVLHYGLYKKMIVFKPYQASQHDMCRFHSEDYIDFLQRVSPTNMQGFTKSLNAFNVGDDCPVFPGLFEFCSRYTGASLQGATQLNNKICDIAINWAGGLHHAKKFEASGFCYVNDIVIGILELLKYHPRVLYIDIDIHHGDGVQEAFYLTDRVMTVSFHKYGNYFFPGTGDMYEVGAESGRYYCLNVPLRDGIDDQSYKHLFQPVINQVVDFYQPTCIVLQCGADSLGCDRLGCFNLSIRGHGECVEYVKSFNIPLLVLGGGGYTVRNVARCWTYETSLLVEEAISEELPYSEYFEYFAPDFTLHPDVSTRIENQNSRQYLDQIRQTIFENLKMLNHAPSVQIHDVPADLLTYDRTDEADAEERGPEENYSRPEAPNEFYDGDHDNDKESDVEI
# Sequence of HDAC3 (Q9Y618 395-489 partner limits assumed): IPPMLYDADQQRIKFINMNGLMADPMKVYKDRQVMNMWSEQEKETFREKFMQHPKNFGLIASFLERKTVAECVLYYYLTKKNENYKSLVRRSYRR
smiles,measurement,setting,value
Cn1c(CCCCCCC(=O)NO)nc2cc(N(CCCl)CCCl)ccc21 [CY190602],GI50,"NCI60 cell lines; average over NCI60 cell lines, read-out: average GI50",3200 nM
same,GI50,NCI60 cell lines; [8],2200 nM
same,GI50,MEFs,57000 nM
same,IC50,"HDAC1; HDAC1 Assay (plot legend value), Fig 2A upper panel",9 nM
same,IC50,"HDAC1; IC50 of CY, HDAC1, Fig 2A lower panel",17 nM
same,IC50,HDAC2,10 nM
same,IC50,HDAC3,25 nM
same,IC50,HDAC4,6.4 nM
same,IC50,HDAC6,72 nM
same,inhibition of HDAC activities in cancer cells (histone acetylation markers),[1],inhibited HDAC activities
same,"expression of Tip60, CBP, MORF and MSL1",[2]; [9],greatly suppressed
same,MTD,[3],60 mg/kg
same,activity in cultured BCR-ABL ALL cells compared with bendamustine,[4],more active than bendamustine
same,"survival extension compared with cyclophosphamide, doxorubicin, cytarabine, and vincristine",BCR-ABL ALL cells; drugs at MTD,superior to these drugs
same,survival extension,BCR-ABL ALL cells,14 days
same,anticancer activity in H460 xenograft compared with bendamustine,[5],superior to bendamustine
same,CLL cells killed at 5 μM,"human CLL cells; 5 μM, 72 h",nearly all
same,"viability at 72 h, 20 μM",[6],~40%
same,effect on AML cells,human AML cells,nearly eliminated AML cells
same,effect on mouse CD45+ (hematopoeitc lineage) cells,human AML cells,minimal effect
"Nc1ccn([C@@H]2O[C@H](CO)[C@@H](O)[C@@H]2O)c(=O)n1 [Cytarabine, reference compound]",effect on AML cells,human AML cells,"didn’t kill AML cells as quickly, or as thoroughly as did CY"
same,effect on mouse CD45+ (hematopoeitc lineage) cells,human AML cells,nearly wiped out CD45+ cells
CC(C)n1nc(-c2cc3cc(O)ccc3[nH]2)c2c(N)ncnc21 [PP242],"survival extension, daily treatment",BCR-ABL ALL cells; daily dose,8 days
O=C(CCCCCCC(=O)Nc1ccccc1)NO [SAHA],"expression of Tip60, CBP, MORF and MSL1",[2],significant suppression
same,survival extension,BCR-ABL ALL cells,approximately 2 days
Cn1c(CCCC(=O)O)nc2cc(N(CCCl)CCCl)ccc21 [bendamustine],GI50,NCI60 cell lines; [8],77000 nM
same,GI50,NCI60 cell lines; read-out: GI50 for most cancer cell lines of the NCI 60 test,> 100000 nM
same,GI50,"MEFs; MEFs, authors' response in review file",~390000 nM
same,HDAC inhibition,HDAC1-6,inability to inhibit HDAC
same,inhibition of HDAC activities in cancer cells (histone acetylation markers),[1],not
same,"expression of Tip60, CBP, MORF and MSL1",[2]; [9],not
same,survival extension,BCR-ABL ALL cells,~5 days
same,CLL cells killed at 100 μM,"human CLL cells; 100 μM, 72 h",about 80%
same,MTD,[7],40 mg/kg
Cn1c(CCCCCCC(=O)NO)nc2cc(N(CCO)CCO)ccc21 [compound A],synergy with bendamustine in killing cancer cells,human cancer cell lines; nontoxic dose of Cpd A plus bendamustine,significantly synergized with bendamustine
same,killing of cancer cells,"human cancer cell lines; up to 200 μM, 48 h",very ineffective in killing cancer cells
same,inhibition of HDAC activities in cancer cells (histone acetylation markers),[1],inhibited HDAC activities
same,level of γ-H2AX in bendamustine-treated cells,γ-H2AX in H1650 cells; 100 μM Bend plus 50 μM Cpd A,significantly increased
same,DNA damage (γ-H2AX) by the compound alone,γ-H2AX in H1650 cells; H1650 cells,did not cause DNA damage
Cn1c(CCCCCCC(=O)O)nc2cc(N(CCCl)CCCl)ccc21 [compound B],inhibition of HDAC activities in cancer cells (histone acetylation markers),[1],little HDAC inhibitory activity
same,inhibition of HDAC activities in cancer cells (histone acetylation markers),[1]; listed as CpdB,not
Nc1nc(F)nc2c1ncn2[C@@H]1O[C@H](CO)[C@@H](O)[C@@H]1O [fludarabine],CLL cells killed at 100 μM,human CLL cells,about 80%
